Experimental data published in US11629164B2, “Gemcitabine prodrugs” (NuCana plc, priority 2014, dated 2023).
Values after ≈ are worked out from the molar mass of the structure shown. Like-named read-outs stand apart in the source and are kept apart here.

Tests used:
[1] = aqueous solubility of NUC-1031 (background statement); format: physicochemical; settings: regardless of salt content or pH
[2] = solubility in pharmaceutically acceptable solvent systems, HPLC assay of filtrate; format: physicochemical
Experimental: The solubilities of NUC-1031 and its diastereoisomers were determined in a range of pharmaceutically acceptable solvent systems. The protocol adopted was as follows:
A small volume, 1-2 mL, of each solvent system was prepared and a weight of the compound in question was added. The solutions were stirred for approximately 4 hours and then […] membrane filtered. The concentration of the compound in question in the filtrate was then determined by HPLC assay.

[3] = metabolic stability in pooled human cryopreserved hepatocyte suspension, HPLC-MS/MS; format: in vitro ADME; settings: both sexes, human, hepatocytes
Experimental: (§1) The clearance and bioavailability of most medicines are strongly influenced by their first-pass metabolism in the liver. It is possible to estimate the relative hepatic “metabolic stability” in vitro by incubating compounds with cryopreserved hepatocytes and determining the initial vs. the final amount of the test compound in the incubation mixtures.
(§2) The following procedure is an HPLC-MS/MS assay using pooled human cryopreserved hepatocyte suspension.
(§3) Human hepatocytes: mixed gender and pool of 10
(§4) Final cell density: 1 million (10^6) viable cells/mL
(§5) Pooled cryopreserved hepatocytes are thawed, washed, and resuspended in Krebs-Heinslet buffer (pH 7.3). The reaction is initiated by adding the test compound (1 μM final concentration) into cell suspension and incubated in a final volume of 100 μL on a flat-bottom 96-well plate for 0 minute and 120 minutes, respectively, at 37° C./5% CO2. The reaction is stopped by adding 100 μL of acetonitrile into the incubation mixture. Samples are then mixed gently and briefly on a plate shaker, transferred completely to a 0.8 mL V-bottom 96-well plate, and centrifuged at 2550×g for 15 minutes at room temperature. Each supernatant (150 μL) is transferred to a clean cluster tube, followed by HPLC-MS/MS analysis on a Thermo Electron triple-quadrupole system.
(§6) This assay was modified for half-life determination. In this case, the sampling time points are 0, 30, 60, 90, and 120 minutes.
(§7) Four reference compounds (1 μM) were tested simultaneously with the test compounds.
(§8) Samples are analyzed via (RP)HPLC-MS/MS using selected reaction monitoring (SRM). The HPLC conditions consist of an HP1100 binary pump with autosampler, a C-12 mixed-mode, 2×20 mm column, and a gradient.
(§9) Peak areas corresponding to the test compound are recorded by HPLC-MS/MS. The metabolic stability, expressed as percent of the test compound remaining, is calculated by comparing the peak areas of the test compound at 2 hours to time zero. In case of half-life determination, the half-life is estimated from the slope of the initial linear range of the logarithmic curve of the test compound remaining (%) vs. time, assuming first order kinetics.

[4] = test system: pooled human cryopreserved hepatocytes; assay: as above; format: in vitro ADME; settings: reference compounds, 1 μM
Experimental: as §1, §2, §3, §4, §5, §6, §7, §8, §9

[5] = 10% mixtures of polar organic solvents in water
[6] = 50% PEG400 by volume in water, aqueous with cosolvent or surfactant or cyclodextrin, thermodynamic from solid, PEG400 (50%) by volume in water, read-out: Solubility
[7] = 50% ethanol by volume in water, aqueous with cosolvent or surfactant or cyclodextrin, thermodynamic from solid, ETHANOL (50%) by volume in water, read-out: Solubility
[8] = 50% propylene glycol by volume in water, aqueous with cosolvent or surfactant or cyclodextrin, thermodynamic from solid, PROPYLENE GLYCOL (50%) by volume in water, read-out: Solubility
[9] = mixtures of polar organic solvents with water

Row | Structure (SMILES) | half-life at 1 μM ([3]; pH 7.3, Half-Life 1st) | half-life at 1 μM ([3]; pH 7.3, Half-Life 2nd) | half-life at 1 μM ([3]; pH 7.3, Half-Life 3rd) | solubility [2, 5] | solubility [2, 6] | solubility [2, 7] | solubility [2, 8] | solubility [2, 9] | stability with human hepatocytes [4] | other results
1 | C[C@H](NP(=O)(OC[C@H]1O[C@@H](n2ccc(N)nc2=O)C(F)(F)C1O)Oc1ccccc1)C(=O)OCc1ccccc1 (stereo partly shown) [NUC-1031] | 1.22 h | 1.21 h | 1.37 h | – | – | – | – | – | – | solubility in water [1]: essentially insoluble in water; solubility ([2]; organic solvent or mixture, thermodynamic from solid, solvent DMSO, read-out: Assay (solubility)): > 217000 µg/mL; solubility ([2]; organic solvent or mixture, thermodynamic from solid, solvent NMP, read-out: Assay (solubility)): > 207000 µg/mL; solubility ([2]; organic solvent or mixture, thermodynamic from solid, solvent PEG 400, read-out: Assay (solubility)): 385000 µg/mL (≈ 663 mM); solubility ([2]; organic solvent or mixture, thermodynamic from solid, solvent Propylene glycol, read-out: Assay (solubility)): 371000 µg/mL (≈ 639 mM); Appearance ([2]; solvent DMSO): Clear solution; Appearance ([2]; solvent Ethanol): Solubilised quickly, after 30; Appearance ([2]; solvent Glycerol): API evident; Appearance ([2]; solvent NMP): Clear solution; Appearance ([2]; solvent PEG 400): Precipitation evident after 120; Appearance ([2]; solvent Propylene glycol): Precipitation evident after 30
2 | C[C@H](N[P@](=O)(OC[C@H]1O[C@@H](n2ccc(N)nc2=O)C(F)(F)C1O)Oc1ccccc1)C(=O)OCc1ccccc1 (stereo partly drawn) [compound 3, 2′-Deoxy-2′,2′-difluoro-D-cytidine-5′-O-[phenyl(benzyloxy-L-alaninyl)]-(S)-phosphate] | 0.675 h | 0.608 h | 0.583 h | significantly improved solubility | 32100 µg/mL (≈ 55.4 mM) | 34800 µg/mL (≈ 59.9 mM) | 11300 µg/mL (≈ 19.4 mM) | sufficient solubility | – | solubility ([2]; 10% PEG400 by volume in water, aqueous with cosolvent or surfactant or cyclodextrin, thermodynamic from solid, PEG400 (10%) by volume in water, read-out: Solubility): 460 µg/mL (≈ 0.792 mM); solubility ([2]; 10% ethanol by volume in water, aqueous with cosolvent or surfactant or cyclodextrin, thermodynamic from solid, ETHANOL (10%) by volume in water, read-out: Solubility): 270 µg/mL (≈ 0.465 mM); solubility ([2]; 10% propylene glycol by volume in water, aqueous with cosolvent or surfactant or cyclodextrin, thermodynamic from solid, PROPYLENE GLYCOL (10%) by volume in water, read-out: Solubility): 230 µg/mL (≈ 0.396 mM); difference in solubility between (S)-epimer and (R)-epimer ([2]; in a number of the solvent mixtures tested): over 100 fold
3 | C[C@H](N[P@@](=O)(OC[C@H]1O[C@@H](n2ccc(N)nc2=O)C(F)(F)[C@@H]1O)Oc1ccccc1)C(=O)OCc1ccccc1 [compound 4, 2′-deoxy-2′,2′-difluoro-D-cytidine-5′-O-[phenyl(benzyloxy-L-alaninyl)]-(R)-phosphate] | 7.86 h | > 2 h | > 2 h | substantially insoluble | 270 µg/mL (≈ 0.465 mM) | 690 µg/mL (≈ 1.19 mM) | 110 µg/mL (≈ 0.189 mM) | substantially insoluble | – | half-life at 1 μM ([3]; pH 7.3, Half-Life Mean): > 2 h
4 | CCN(CC)CCN1C(=O)CN=C(c2ccccc2F)c2cc(Cl)ccc21 [flurazepam, reference compound] | – | – | – | – | – | – | – | – | relatively unstable | –
5 | C=CCN1CC[C@]23c4c5ccc(O)c4O[C@H]2C(=O)CC[C@@]3(O)[C@H]1C5 [naloxone, reference compound] | – | – | – | – | – | – | – | – | relatively unstable | –
